Broadly, the IC50 is the concentration that inhibits the measured activity by half.

The text below walks through data of patent US10500232B2, “Small molecule cellular reprogramming to generate neuronal cells” (The J. David Gladstone Institutes, a testamentary trust …, priority 2013, dated 2019).

The subject of experiment [1] is Tau-EGFP mouse embryonic fibroblasts transduced with Ascl1/Myt1l. Description: High-throughput compound screening for Tau-EGFP expression and neuronal morphology. It counts as cell-based. The following applies: individual compound plus doxycycline 7 days, analysed day 14; hits confirmed dose-dependently in larger well format. As to the method: Infected Tau-EGFP MEFs in 150-mm dishes were dissociated by trypsinization and plated to 384-well plates with 4×10^3 cells per well in 50 μl of N2B27 medium plus 2.0 μg ml^−1 doxycycline by using Multi-drop (Thermo Fisher). Fifty nanoliters of compounds from a collection of known drugs (˜3,000) were added to each well of infected cells by using BioMek (BD). After 3 days of compound treatment, […] N2B27 media were added to each well to keep the medium volume at 55-60 μl. The total period of compound treatment is 7 days. After that, medium was replaced with neuronal maturation medium for another 7 days. The cells were then fixed for immunostaining on Day 14. The high-throughput imaging was performed by using InCell 2000. Finally, the screening result was analyzed by InCell Workstation 2000.
To conduct the chemical screening, Tau-EGFP mouse embryonic fibroblasts were used that were transduced with an Ascl1/Myt1l coding region that was under control of tet operator. These cells were plated at 4,000 cells/well in 384-well plates containing chemically defined N2B27 media. After overnight incubation, the cells were treated for seven days with doxycycline to induce Ascl1/Myt1l expression and also contacted with individual compounds selected from a drug collection containing over 3000 compounds. The media was then replaced with compound-free standard neuronal media. Cells were fixed at day 14 then analyzed for Tau-EGFP expression and neuronal morphology by high content imaging (FIG. 4A and FIG. 3).

A further experiment concerns PDE4. The following applies: read-out: IC50 against PDE4; cited from earlier work.

As to `O=C(O)c1ccc(-c2ccc3cc(O)c(C45CC6CC(CC(C6)C4)C5)cc3c2)cc1` [CD1530, 4-(6-hydroxy-7-tricyclo[3.3.1.13,7]dec-1-yl-2-naphthalenyl)benzoic acid], in experiment [1], the “induction of Tau-EGFP expression and neuronal morphology (screen hit)” value was “induce Tau-EGFP expression and a neuronal morphology”. In the case of `COc1ccc([C@H](Cc2ccncc2)c2ccccc2)cc1OC1CCCC1` [CDP-840, 4-[(2R)-2-(3-cyclopentyloxy-4-methoxyphenyl)-2-phenylethyl]pyridine], the IC50 in the experiment with PDE4 is roughly 10000 nM. With `Cc1c[nH]c(-c2cnc(NCCNc3ccc(C#N)cn3)nc2-c2ccc(Cl)cc2Cl)n1` [CHIR99021, 6-(2-(4-(2,4-dichlorophenyl)-5-(4-methyl-1H-imidazol-2-yl)pyrimidin-2-ylamino)ethylamino)nicotinonitrile], the “induction of Tau-EGFP expression and neuronal morphology (screen hit)” value in experiment [1] was “induce Tau-EGFP expression and a neuronal morphology”. As for `CCCCCCCCCCCCCCCc1cccc(OCC)c1C(=O)Nc1ccc(Cl)c(C(F)(F)F)c1` [CTPB, N-(4-chloro-3-trifluoromethyl-phenyl)-2-ethoxy-6-pentadecyl-benzamide], the “induction of Tau-EGFP expression and neuronal morphology (screen hit)” value in experiment [1] was “induce Tau-EGFP expression and a neuronal morphology”. With `Cc1cc2c3c(c1)C(c1ccccc1)=N[C@@H](NC(=O)c1ccncc1)C(=O)N3CC2` [Cl-1018, N-[(3R)-9-methyl-4-oxo-1-phenyl-3,4,6,7-tetrahydro[1,4]diazepino[6,7,1-hi]indol-3-yl]pyridine-4-carboxamide], the IC50 in the experiment on PDE4 was roughly 3000 nM. With `COc1ccc(C(=O)Nc2cc(Cl)cnc2Cl)c2cccnc12` [D-4418, N-(2,5-dichloropyridin-3-yl)-8-methoxyquinoline-5-carboxamide], in the experiment on PDE4, the IC50 was roughly 170 nM. Take `CCOC(=O)c1ccc(N(C)C2CSC(c3ccccc3)=N2)cc1` (stereo not shown) [KHS2, ethyl 4-(methyl(2-phenyl-4,5-dihydrothiazol-4-yl)amino)benzoate]: the “induction of Tau-EGFP expression and neuronal morphology (screen hit)” value in experiment [1] is “induce Tau-EGFP expression and a neuronal morphology”.

For the compound `NC(=O)c1ccc(-c2nc(-c3ccc4c(c3)OCO4)c(-c3ccccn3)[nH]2)cc1` [SB 431542, 4-[4-(1,3-benzodioxol-5-yl)-5-(2-pyridinyl)-1H-imidazol-2-yl]benzamide], in experiment [1], the “induction of Tau-EGFP expression and neuronal morphology (screen hit)” value is “induce Tau-EGFP expression and a neuronal morphology”. Consider `COc1ccc(C(=O)Nc2c(Cl)c[n+]([O-])cc2Cl)c2ccc(C(F)(F)F)nc12` [Sch-351591], for which, in the experiment on PDE4, the IC50 is 150 nM. For the compound `Cc1cc(C)cc(C(=O)OC2CC3CCC(C2)N3C)c1` (stereo not shown) [TDMB, Tropanyl-3,5-dimethylbenzoate], the “induction of Tau-EGFP expression and neuronal morphology (screen hit)” value in experiment [1] is “induce Tau-EGFP expression and a neuronal morphology”.

In the case of `C[C@@H](N)[C@H]1CC[C@H](C(=O)Nc2ccncc2)CC1` [Y27632, 4-[(1R)-1-aminoethyl]-N-pyridin-4-ylcyclohexane-1-carboxamide], the “induction of Tau-EGFP expression and neuronal morphology (screen hit)” value in experiment [1] was “induce Tau-EGFP expression and a neuronal morphology”. For `COc1ccc(C2(C#N)CCC(C(=O)O)CC2)cc1OC1CCCC1` (stereo not shown) [ariflo, 4-cyano-4-(3-cyclopentyloxy-4-methoxyphenyl)cyclohexane-1-carboxylic acid], in the experiment with PDE4, the IC50 is roughly 150 nM. In the case of `O=C(Nc1c(Cl)cncc1Cl)c1ccc(OC(F)F)c(OCC2CC2)c1` [roflumilast, 3-(cyclopropylmethoxy)-N-(3,5-dichloropyridin-4-yl)-4-(difluoromethoxy)benzamide], in the experiment with PDE4, the IC50 was 0.6 nM. For the compound `COc1ccc(C2CNC(=O)C2)cc1OC1CCCC1` (stereo not shown) [rolipram, 4-(3-cyclopentyloxy-4-methoxyphenyl)pyrrolidin-2-one], the “induction of Tau-EGFP expression and neuronal morphology (screen hit)” value in experiment [1] is “induce Tau-EGFP expression and a neuronal morphology”. In the case of `CCc1nn(C2CCCC2)c2c1CCn1c(-c3cccs3)nnc1-2` [tofimilast], the IC50 in the experiment on PDE4 is roughly 13 nM. Consider “(2S,3S,4R,5R)-3,4-dihydroxy-5-[6-[(3-iodophenyl)methylamino]purin-9-yl]-N-ethyloxolane-2-carboxamide [IB-MECA]”, for which, in experiment [1], the “induction of Tau-EGFP expression and neuronal morphology (screen hit)” value was “induce Tau-EGFP expression and a neuronal morphology”.
